Reference: PMC6253765, “Synthesis and Herbicidal Activities of Novel 4-(4-(5-methyl-3-arylisoxazol-4-yl)thiazol-2-yl)piperidyl Carboxamides and Thiocarboxamides” (Molecules, 2009)

Target: T1, D1 protease (CtpA) (Spinacia oleracea, UniProt Q36792)
T1 construct: native spinach CtpA protein purified from spinach thylakoid
T1 sequence (Q36792 147-539): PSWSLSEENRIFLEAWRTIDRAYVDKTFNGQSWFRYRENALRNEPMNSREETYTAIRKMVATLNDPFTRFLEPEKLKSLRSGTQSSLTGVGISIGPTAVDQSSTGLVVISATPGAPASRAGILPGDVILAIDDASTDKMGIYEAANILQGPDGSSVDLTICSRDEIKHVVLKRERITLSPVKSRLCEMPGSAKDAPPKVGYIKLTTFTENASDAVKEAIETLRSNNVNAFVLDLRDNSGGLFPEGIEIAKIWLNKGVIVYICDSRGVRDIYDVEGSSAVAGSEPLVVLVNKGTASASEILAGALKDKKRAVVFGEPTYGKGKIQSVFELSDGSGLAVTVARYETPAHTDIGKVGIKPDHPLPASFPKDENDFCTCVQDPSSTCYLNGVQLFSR
Test: HPLC assay of cleavage of S24 peptide substrate; Dixon plot
Assay type: biochemical

SMILES: CCCCNC(=O)N1CCC(c2nc(-c3c(-c4ccccc4F)noc3C)cs2)CC1 [4m, N-butyl-4-(4-(3-(2-fluorophenyl)-5-methylisoxazol-4-yl)thiazol-2-yl)piperidine-1-carboxamide]
- Ki: 1.3 µM
